Where two headings read alike, the source gives them in different places.
How the values were obtained:
Surinam grass = assay: Test C pre-/postemergence herbicide test; assay type: in vivo, Urochloa decumbens
Text: (§1) Seeds of plant species selected from bermudagrass (Cynodon dactylon (L.) Pers.), Surinam grass (Urochloa decumbens (Staph) R. D. Webster, previously named Brachiaria decumbens Stapf), cocklebur (Xanthium strumarium L.), corn (Zea mays L.), large crabgrass (Digitaria sanguinalis (L.) Scop.), woolly cupgrass (Eriochloa villosa (Thunb.) Kunth), giant foxtail (Setaria faberi Herrm.), goosegrass (Eleusine indica (L.) Gaertn.), johnsongrass (Sorghum halepense (L.) Pers.), kochia (Kochia scoparia (L.) Schrad.), lambsquarters (Chenopodium album L.), morningglory (Ipomoea coccinea L.), eastern black nightshade (Solanum ptycanthum Dunal), yellow nutsedge (Cyperus esculentus L.), pigweed (Amaranthus retroflexus L.), common ragweed (Ambrosia elatior L.), soybean (Glycine max (L.) Merr.), common (oilseed) sunflower (Helianthus annuus L.) and velvetleaf (Abutilon theophrasti Medik.) were planted and treated preemergence with test chemicals formulated in a non-phytotoxic solvent mixture which included a surfactant.
(§2) At the same time, plants selected from these crop and weed species and also winter barley (Hordeum vulgare L.), blackgrass (Alopecurus myosuroides Huds.), canarygrass (Phalaris minor Retz.), chickweed (Stellaria media (L.) Vill.), downy bromegrass (Bromus tectorum L.), green foxtail (Setaria viridis (L.) Beauv.), Italian ryegrass (Lolium multiflorum Lam.), wheat (Triticum aestivum L.), wild oat (Avenafatua L.) and windgrass (Apera spica-venti (L.) Beauv.) were treated with postemergence applications of some of the test chemicals formulated in the same manner. Plants ranged in height from 2 to 18 cm (1- to 4-leaf stage) for postemergence treatments. Plant species in the flooded paddy test consisted of rice (Oryza sativa), smallflower umbrella sedge (Cyperus difformis L.), ducksalad (Heteranthera limosa (Sw.) Willd.) and barnyardgrass (Echinochloa crus-galli (L.) Beauv.) grown to the 2-leaf stage for testing. Treated plants and controls were maintained in a greenhouse for 12 to 14 days, after which time all species were compared to controls and visually evaluated. Plant response ratings, summarized in Table C, are based on a scale of 0 to 100 where 0 is no effect and 100 is complete control. A dash (-) response means no test result.

kochia = assay: Test C pre-/postemergence herbicide test; assay type: in vivo, Kochia scoparia
Text: as §1, §2

velvetleaf [1] = assay: Test C pre-/postemergence herbicide test; assay type: in vivo, Abutilon theophrasti
Text: as §1, §2

corn = assay: Test C pre-/postemergence herbicide test; assay type: in vivo, Zea mays
Text: as §1, §2

morningglory = assay: Test C pre-/postemergence herbicide test; assay type: in vivo, Ipomoea coccinea; parameters: key to Plant response rating, Morningglory: 0 = no effect, 100 = complete control
Text: as §1, §2

velvetleaf [2] = assay: Test B pre-/postemergence herbicide test; assay type: in vivo, Abutilon theophrasti; details: for Plant response rating (0 to 100 scale), Velvetleaf: 0 is no effect, 100 is complete control, preemergence; for pest or weed control at 125 g/ha / pest or weed control at 500 g/ha: Abutilon theophrasti, 336 h
Method in brief: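 Pre: seeds sown, then sprayed. Post: 1–4-leaf plants (2–18 cm) sprayed at the same time. Paddy: flooded, treated at 2-leaf stage. Formulation: non-phytotoxic solvent with surfactant. Greenhouse 13–15 days; visual 0–100 score relative to controls.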

[3] = tested on: smallflower umbrella sedge; assay: Test C flooded paddy test; assay type: in vivo, Cyperus difformis; details: for Plant response rating, Sedge, Umbrella: 500 g ai/ha, visual rating after 12 to 14 days
[4] = 62 g ai/ha, preemergence, scale 0 to 100
[5] = 500 g ai/ha, scale 0 to 100 (0 no effect, 100 complete control), visual, 12 to 14 days, preemergence
[6] = 250 g ai/ha, scale 0-100, preemergence
[7] = Postemergence, 500 g ai/ha, scale 0 (no effect) to 100 (complete control)
[8] = Preemergence, 500 g ai/ha, scale 0 to 100, 0 no effect, 100 complete control
[9] = 125 g ai/ha, scale 0 to 100 (0 no effect, 100 complete control)
[10] = 250 g ai/ha, scale of 0 to 100, 0 is no effect, 100 is complete control
[11] = scale 0 to 100 (0 no effect, 100 complete control)
[12] = 125 g ai/ha, visual rating, scale 0 (no effect) to 100 (complete control), postemergence

Row | SMILES | Plant response rating, Kochia (kochia; [4]) | Plant response rating (0 = no effect, 100 = complete control), Kochia (kochia; 125 g ai/ha, preemergence) | Plant response rating, Kochia (kochia; [6]) | Plant response rating, Kochia (kochia; [5]) | Plant response rating, Velvetleaf (velvetleaf [1]; [4]) | Plant response rating (0 = no effect, 100 = complete control), Velvetleaf (velvetleaf [1]; 125 g ai/ha, preemergence) | Plant response rating, Velvetleaf (velvetleaf [1]; [5]) | Plant response rating, Corn (corn; [4]) | Plant response rating, Corn (corn; [6]) | Plant response rating, Corn (corn; [5]) | Plant response rating, Morningglory (morningglory; [4]) | Plant response rating (0 to 100 scale), Velvetleaf (velvetleaf [2]; 125 g ai/ha) | Velvetleaf plant response rating (velvetleaf [2]; [7]) | Sedge, Umbrella plant response rating ([3]; 62 g ai/ha, scale 0 to 100) | Sedge, Umbrella plant response rating [3, 9] | Sedge, Umbrella plant response rating [3, 10] | Plant response rating, Sedge, Umbrella [3, 11] | Plant response rating, Velvetleaf (velvetleaf [1]; [6]) | Velvetleaf plant response rating (velvetleaf [2]; [12]) | further results
1 | C=CCNC(=O)c1cccc(NC(=O)c2nn(C(C)(C)C)nc2CC)c1 [Compound 414] | 60 | 75 | 80 | 100 | 90 | 100 | 100 | 0 | 50 | 80 | 10 | 70 | 70 | – | – | – | – | – | – | Plant response rating, Surinam Grass (Surinam grass; [4]): 0; Plant response rating (0 = no effect, 100 = complete control), Surinam Grass (Surinam grass; 125 g ai/ha, preemergence): 80; Plant response rating, Surinam Grass (Surinam grass; [5]): 100; Plant response rating (0 = no effect, 100 = complete control), Corn (corn; 125 g ai/ha, preemergence): 0; Plant response rating (0 = no effect, 100 = complete control), Morningglory (morningglory; 125 g ai/ha, preemergence): 55; Plant response rating, Morningglory (morningglory; [5]): 95; Velvetleaf plant response rating (velvetleaf [2]; postemergence, 125 g ai/ha, scale 0 to 100): 50
2 | CCc1nn(C(C)(C)C)cc1C(=O)Nc1cccc(C(=O)N(CC)CC)c1 [Compound 182, N-[3-[(diethylamino)carbonyl]phenyl]-1-(1,1-dimethylethyl)-3-ethyl-1H-pyrazole-4-carboxamide] | – | – | – | – | – | – | – | – | – | – | – | – | – | – | – | – | – | – | – | Surinam Grass plant response rating (Surinam grass; [8]): 85; pest or weed control at 62 g/ha (Surinam grass; Urochloa decumbens, pre-emergence, 312 h, 62 g ai/ha, preemergence, scale 0 to 100, read-out: Plant response rating, Surinam Grass): 0%; pest or weed control at 125 g/ha (Surinam grass; Urochloa decumbens, pre-emergence, 312 h, 125 g ai/ha, scale 0 (no effect) to 100 (complete control), visual, 12 to 14 days, read-out: Plant response rating, Surinam Grass): 20%; pest or weed control at 62 g/ha (kochia; Bassia scoparia, pre-emergence, 62 g ai/ha, preemergence, scale 0 to 100, read-out: Plant response rating, Kochia): 0%; pest or weed control at 125 g/ha (kochia; Bassia scoparia, pre-emergence, 125 g ai/ha, scale 0 (no effect) to 100 (complete control), visual, 12 to 14 days, read-out: Plant response rating, Kochia): 60%; Kochia plant response rating (kochia; [8]): 90; pest or weed control at 62 g/ha (velvetleaf [1]; Abutilon theophrasti, pre-emergence, 62 g ai/ha, preemergence, scale 0 to 100, read-out: Plant response rating, Velvetleaf): 0%; pest or weed control at 125 g/ha (velvetleaf [1]; Abutilon theophrasti, pre-emergence, 125 g ai/ha, scale 0 (no effect) to 100 (complete control), visual, 12 to 14 days, read-out: Plant response rating, Velvetleaf): 0%; Velvetleaf plant response rating (velvetleaf [1]; [8]): 100; Corn plant response rating (corn; [8]): 0; Corn plant response rating (crop injury, 0 = no effect, 100 = complete kill) at 62 g/ha (corn; Zea mays, pre-emergence, 312 h, 62 g ai/ha, preemergence, scale 0 to 100): 0%; Corn plant response rating (crop injury, 0 = no effect, 100 = complete kill) at 125 g/ha (corn; Zea mays, pre-emergence, 312 h, 125 g ai/ha, scale 0 (no effect) to 100 (complete control), visual, 12 to 14 days): 0%; Corn plant response rating (crop injury, 0 = no effect, 100 = complete kill) at 250 g/ha (corn; Zea mays, pre-emergence, 312 h, 250 g ai/ha, scale 0 to 100 (0 no effect, 100 complete control), visual, 12 to 14 days): 0%; pest or weed control at 62 g/ha (morningglory; Ipomoea, pre-emergence, 62 g ai/ha, preemergence, scale 0 to 100, read-out: Plant response rating, Morningglory): 0%; pest or weed control at 125 g/ha (morningglory; Ipomoea, pre-emergence, 125 g ai/ha, scale 0 (no effect) to 100 (complete control), visual, 12 to 14 days, read-out: Plant response rating, Morningglory): 15%; Morningglory plant response rating (morningglory; [8]): 100; pest or weed control at 125 g/ha (velvetleaf [2]; post-emergence, postemergence, 125 g ai/ha, visual rating, scale 0 (no effect) to 100 (complete control), read-out: Velvetleaf plant response rating): 0%; pest or weed control at 500 g/ha (velvetleaf [2]; post-emergence, postemergence, 500 g ai/ha, visual rating, scale 0 (no effect) to 100 (complete control), read-out: Velvetleaf plant response rating): 60%; pest or weed control at 125 g/ha (velvetleaf [2]; pre-emergence, 125 g ai/ha, 0 = no effect, 100 = complete control, read-out: Velvetleaf plant response rating (0 to 100 scale)): 0%; pest or weed control at 500 g/ha (velvetleaf [2]; pre-emergence, 500 g ai/ha, visual rating 0-100, 0 no effect, 100 complete control, read-out: Plant response rating, Velvetleaf): 70%
3 | Cc1nn(C(C)(C)C)nc1C(=O)Nc1cccc(C(=O)N2CC=CC2)c1 [Compound 393] | 0 | 100 | 100 | 100 | 65 | 100 | 100 | 55 | 75 | 100 | 60 | 50 | 60 | 70 | 75 | 80 | 85 | 100 | 40 | –
4 | CCc1nn(C(C)(C)C)nc1C(=O)Nc1cccc(C(=O)N(C)CC)c1 [Compound 384] | 90 | 100 | 100 | – | 100 | 100 | – | – | – | – | – | 70 | 70 | 80 | 80 | 80 | 80 | 100 | 30 | –
